Here are results for 7 compounds from patent publication US20240209028A1, “CNP COMPOUNDS” (priority 2022, published 2024).

For this test, the target named is T1, human natriuretic peptide receptor 2 (hNPR2) (Homo sapiens, UniProt P20594).
T1 construct: expressed in transfected cells; host or cells: HEK293 (ATCC CRL-1573), clone 35, co-transfected with pGloSensor-42F
T1 sequence (P20594 23-1047): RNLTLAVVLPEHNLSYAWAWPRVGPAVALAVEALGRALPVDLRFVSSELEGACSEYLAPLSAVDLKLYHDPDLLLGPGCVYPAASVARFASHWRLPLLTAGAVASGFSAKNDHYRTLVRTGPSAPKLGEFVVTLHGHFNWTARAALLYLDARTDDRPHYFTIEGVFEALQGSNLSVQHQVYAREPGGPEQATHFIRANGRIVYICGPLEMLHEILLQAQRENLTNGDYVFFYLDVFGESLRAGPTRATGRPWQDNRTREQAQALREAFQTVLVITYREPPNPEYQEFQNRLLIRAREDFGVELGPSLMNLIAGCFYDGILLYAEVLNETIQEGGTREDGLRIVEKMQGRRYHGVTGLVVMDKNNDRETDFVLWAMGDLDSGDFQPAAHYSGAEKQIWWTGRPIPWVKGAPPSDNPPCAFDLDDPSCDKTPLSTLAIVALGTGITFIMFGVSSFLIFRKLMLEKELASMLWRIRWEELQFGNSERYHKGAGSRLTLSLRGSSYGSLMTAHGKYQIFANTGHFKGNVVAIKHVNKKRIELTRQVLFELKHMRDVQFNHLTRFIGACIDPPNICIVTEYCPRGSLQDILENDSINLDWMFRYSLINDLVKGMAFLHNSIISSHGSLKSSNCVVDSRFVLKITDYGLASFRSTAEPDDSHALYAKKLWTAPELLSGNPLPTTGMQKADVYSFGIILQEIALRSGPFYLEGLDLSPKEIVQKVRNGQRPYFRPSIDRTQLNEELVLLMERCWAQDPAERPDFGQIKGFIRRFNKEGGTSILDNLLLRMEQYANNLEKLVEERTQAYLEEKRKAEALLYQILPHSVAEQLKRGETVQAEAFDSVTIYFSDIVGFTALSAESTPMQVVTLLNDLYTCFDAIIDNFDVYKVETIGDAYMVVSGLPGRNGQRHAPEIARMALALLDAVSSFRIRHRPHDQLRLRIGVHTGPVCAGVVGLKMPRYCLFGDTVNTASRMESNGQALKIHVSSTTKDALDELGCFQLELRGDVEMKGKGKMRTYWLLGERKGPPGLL
In words: In vitro hNPR2 activity assay (cGMP GloSensor reporter, HEK293). The test is classed as cell-based. The note with it: for hNPR2 0% HSA. [EC50% rel CNP]: potency relative to CNP22 (0065); for EC50: 0% HSA, HEK293-hNPR2/GloSensor cells. In short, it runs like this:
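Potency is the EC50 from a four-parameter logistic fit, also expressed relative to the in-plate CNP22 control (×100), with at least two replicates. Compounds (ten concentrations, […], HSA-free diluent with 1% OVA, 0.01% Tween20) were incubated 30 min at 37 °C on HEK293 cells co-expressing hNPR2 and a GloSensor cGMP luciferase. Luminescence detected with Bright-Glo.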

What is called EC50 is the concentration giving half of the maximal effect. Low readings indicate higher potency in that assay, high ones lower potency in that assay.

Each structure is given as a SMILES string. Starred links: 1 amine or outer side, 2 acyl side, 3 side chain; linkers in the order of their positions; H or OH if unused. Positions of bridges follow the written chain, without caps; N, C: chain ends. Residues, ends and D or L forms follow the SMILES beside them. *: point of attachment. C18 diacid = O=C(O)CCCCCCCCCCCCCCCCC(=O)*; γGlu = O=C(O)[C@H](CCC(=O)[*:2])N[*:1]; AEEA = NCCOCCOCC(=O)O

For `CC[C@H](C)[C@@H]1NC(=O)[C@H](CCCNC(=N)N)NC(=O)[C@H](CCC(=O)O)NC(=O)[C@H](CC(C)C)NC(=O)[C@@H]2CCCN2C(=O)[C@H](CC(C)C)NC(=O)CNC(=O)[C@H](Cc2ccccc2)NC(=O)[C@@H](NC(=O)CNC(=O)[C@H](CO)NC(=O)[C@H](CO)NC(=O)[C@@H](NC(=O)CNC(=O)[C@H](CCCCN)NC(=O)[C@H](CCCCN)NC(=O)[C@H](CCC(N)=O)NC(=O)[C@H](C)NC(=O)CNC(=O)[C@H](Cc2c[nH]cn2)NC(=O)[C@H](Cc2ccc(O)cc2)NC(=O)[C@H](CCCCN)NC(=O)[C@H](CCCNC(=N)N)NC(=O)[C@H](C)NC(=O)COCCOCCNC(=O)COCCOCCNC(=O)CC[C@H](NC(=O)CC[C@H](NC(=O)CC[C@H](NC(=O)CCCCCCCCCCCCCCCCC(=O)O)C(=O)O)C(=O)O)C(=O)O)C(C)C)CSSC[C@@H](C(=O)O)NC(=O)CNC(=O)[C@H](CC(C)C)NC(=O)CNC(=O)[C@H](CO)NC(=O)[C@H](CC(C)C)NC(=O)[C@H](CO)NC(=O)CNC1=O` [compound 1451] ({C18 diacid-γGlu-γGlu-γGlu-AEEA-AEEA}-ARKYHGAQKKGVSSGCFGLPLERIGSLSGLGC-OH; disulfide 16-32), the “hNPR2 0% HSA. [EC50% rel CNP]” value stood at 47.5%.
With `CC[C@H](C)[C@@H]1NC(=O)[C@H](CCCNC(=N)N)NC(=O)[C@H](CC(=O)O)NC(=O)[C@H](CC(C)C)NC(=O)[C@H](CCCCN)NC(=O)[C@H](CC(C)C)NC(=O)CNC(=O)[C@H](Cc2ccccc2)NC(=O)[C@@H](NC(=O)CNC(=O)[C@H](CCCCN)NC(=O)[C@H](CO)NC(=O)[C@H](CC(C)C)NC(=O)CNC(=O)COCCOCCNC(=O)COCCOCCNC(=O)CC[C@H](NC(=O)CCCCCCCCCCCCCCCCC(=O)O)C(=O)O)CSSC[C@@H](C(=O)O)NC(=O)CNC(=O)[C@H](CC(C)C)NC(=O)CNC(=O)[C@H](CO)NC(=O)[C@H](CCSC)NC(=O)[C@H](CO)NC(=O)CNC1=O` [compound 0089], the response was half-maximal at 12.3 nM (EC50) and the “hNPR2 0% HSA. [EC50% rel CNP]” value was found to be 3.1%.
For the compound `CC[C@H](C)[C@@H]1NC(=O)[C@H](CCCNC(=N)N)NC(=O)[C@H](CC(=O)O)NC(=O)[C@H](CC(C)C)NC(=O)[C@@H]2CCCN2C(=O)[C@H](CC(C)C)NC(=O)CNC(=O)[C@H](Cc2ccccc2)NC(=O)[C@@H](NC(=O)CNC(=O)[C@H](CCC(N)=O)NC(=O)[C@H](CO)NC(=O)[C@H](CC(C)C)NC(=O)CNC(=O)[C@H](Cc2c[nH]cn2)NC(=O)[C@H](Cc2c[nH]cn2)NC(=O)[C@H](CCC(N)=O)NC(=O)[C@H](C)NC(=O)CNC(=O)[C@H](CCCCN)NC(=O)[C@H](Cc2ccc(O)cc2)NC(=O)COCCOCCNC(=O)COCCOCCNC(=O)CC[C@H](NC(=O)CCCCCCCCCCCCCCCCC(=O)O)C(=O)O)CSSC[C@@H](C(=O)O)NC(=O)CNC(=O)[C@H](CC(C)C)NC(=O)CNC(=O)[C@H](CO)NC(=O)[C@H](CC(C)C)NC(=O)[C@H](CO)NC(=O)CNC1=O` [compound 1341] ({C18 diacid-γGlu-AEEA-AEEA}-YKGAQHHGLSQGCFGLPLDRIGSLSGLGC-OH; disulfide 13-29; C-terminus assumed), the “hNPR2 0% HSA. [EC50% rel CNP]” value was found to be 16.7%.
For `CC[C@H](C)[C@@H]1NC(=O)[C@H](CCCNC(=N)N)NC(=O)[C@H](CC(=O)O)NC(=O)[C@H](CC(C)C)NC(=O)[C@@H]2CCCN2C(=O)[C@H](CC(C)C)NC(=O)CNC(=O)[C@H](Cc2ccccc2)NC(=O)[C@@H](NC(=O)CNC(=O)[C@H](CO)NC(=O)[C@H](CO)NC(=O)[C@H](CC(C)C)NC(=O)CNC(=O)[C@H](CCC(=O)O)NC(=O)[C@H](CCCCN)NC(=O)[C@H](CCC(N)=O)NC(=O)[C@H](C)NC(=O)CNC(=O)[C@H](CCC(=O)O)NC(=O)[C@H](Cc2ccc(O)cc2)NC(=O)COCCOCCNC(=O)COCCOCCNC(=O)CC[C@H](NC(=O)CCCCCCCCCCCCCCCCC(=O)O)C(=O)O)CSSC[C@@H](C(=O)O)NC(=O)CNC(=O)[C@H](CC(C)C)NC(=O)CNC(=O)[C@H](CO)NC(=O)[C@H](CC(C)C)NC(=O)[C@H](CO)NC(=O)CNC1=O` [compound 1289] ({C18 diacid-γGlu-AEEA-AEEA}-YEGAQKEGLSSGCFGLPLDRIGSLSGLGC-OH; disulfide 13-29), the “hNPR2 0% HSA. [EC50% rel CNP]” value amounted to 2.9%.
Consider `CC[C@H](C)[C@@H]1NC(=O)[C@H](CCCNC(=N)N)NC(=O)[C@H](CC(=O)O)NC(=O)[C@H](CC(C)C)NC(=O)[C@@H]2CCCN2C(=O)[C@H](CC(C)C)NC(=O)CNC(=O)[C@H](Cc2ccccc2)NC(=O)[C@@H](NC(=O)CNC(=O)[C@H](CCCCN)NC(=O)[C@H](CO)NC(=O)[C@@H](NC(=O)CNC(=O)[C@@H](NC(=O)[C@H](CCCCN)NC(=O)[C@H](CCC(N)=O)NC(=O)[C@H](C)NC(=O)CNC(=O)[C@H](Cc2c[nH]cn2)NC(=O)[C@H](Cc2ccc(O)cc2)NC(=O)COCCOCCNC(=O)COCCOCCNC(=O)COCCOCCNC(=O)COCCOCCNC(=O)CC[C@H](NC(=O)CC[C@H](NC(=O)CCCCCCCCCCCCCCCCC(=O)O)C(=O)O)C(=O)O)[C@@H](C)O)C(C)C)CSSC[C@@H](C(=O)O)NC(=O)CNC(=O)[C@H](CC(C)C)NC(=O)CNC(=O)[C@H](CO)NC(=O)[C@H](CC(C)C)NC(=O)[C@H](CO)NC(=O)CNC1=O` [compound 1425] ({C18 diacid-γGlu-γGlu-AEEA-AEEA-AEEA-AEEA}-YHGAQKTGVSKGCFGLPLDRIGSLSGLGC-OH; disulfide 13-29), for which the “hNPR2 0% HSA. [EC50% rel CNP]” value amounted to 26.4%.
For the compound `CC[C@H](C)[C@@H]1NC(=O)[C@H](CCCNC(=N)N)NC(=O)[C@H](CCC(=O)O)NC(=O)[C@H](CC(C)C)NC(=O)[C@@H]2CCCN2C(=O)[C@H](CC(C)C)NC(=O)CNC(=O)[C@H](Cc2ccccc2)NC(=O)[C@@H](NC(=O)CNC(=O)[C@H](CCC(N)=O)NC(=O)[C@H](CO)NC(=O)[C@H](CC(C)C)NC(=O)CNC(=O)[C@H](CCCCN)NC(=O)[C@H](CCCCN)NC(=O)[C@H](CCC(N)=O)NC(=O)[C@H](C)NC(=O)CNC(=O)[C@H](CCCCN)NC(=O)[C@H](Cc2ccc(O)cc2)NC(=O)COCCOCCNC(=O)COCCOCCNC(=O)COCCOCCNC(=O)COCCOCCNC(=O)CC[C@H](NC(=O)CC[C@H](NC(=O)CCCCCCCCCCCCCCCCC(=O)O)C(=O)O)C(=O)O)CSSC[C@@H](C(=O)O)NC(=O)CNC(=O)[C@H](CC(C)C)NC(=O)CNC(=O)[C@H](CO)NC(=O)[C@H](CC(C)C)NC(=O)[C@H](CO)NC(=O)CNC1=O` [compound 1493] ({C18 diacid-γGlu-γGlu-AEEA-AEEA-AEEA-AEEA}-YKGAQKKGLSQGCFGLPLERIGSLSGLGC-OH; disulfide 13-29; C-terminus assumed), the half-maximal effective concentration (EC50) amounted to 0.8 nM and the “hNPR2 0% HSA. [EC50% rel CNP]” value came out at 11.5%.
Turning to `CC[C@H](C)[C@@H]1NC(=O)[C@H](CCCNC(=N)N)NC(=O)[C@H](CC(=O)O)NC(=O)[C@H](CC(C)C)NC(=O)[C@@H]2CCCN2C(=O)[C@H](CC(C)C)NC(=O)CNC(=O)[C@H](Cc2ccccc2)NC(=O)[C@@H](NC(=O)CNC(=O)[C@H](CCCCN)NC(=O)[C@H](CO)NC(=O)[C@H](CC(C)C)NC(=O)CNC(=O)[C@H](CCCCN)NC(=O)[C@H](CCCCN)NC(=O)[C@H](CCC(N)=O)NC(=O)[C@H](C)NC(=O)CNC(=O)[C@H](Cc2c[nH]cn2)NC(=O)[C@H](CCC(=O)O)NC(=O)COCCOCCNC(=O)COCCOCCNC(=O)COCCOCCNC(=O)CC[C@H](NC(=O)CCCCCCCCCCCCCCCCC(=O)O)C(=O)O)CSSC[C@@H](C(=O)O)NC(=O)CNC(=O)[C@H](CC(C)C)NC(=O)CNC(=O)[C@H](CO)NC(=O)[C@H](CC(C)C)NC(=O)[C@H](CO)NC(=O)CNC1=O` [compound 1353] ({C18 diacid-γGlu-AEEA-AEEA-AEEA}-EHGAQKKGLSKGCFGLPLDRIGSLSGLGC-OH; disulfide 13-29; C-terminus assumed), the “hNPR2 0% HSA. [EC50% rel CNP]” value was 9.0%.
